Measurements: patent US9073945B2, “Alpha-IIb-beta-3 inhibitors and uses thereof” (THE ROCKEFELLER UNIVERSITY, priority 2006, dated 2015)
One block for each molecule: values may come before it. Positions of bridges follow the written chain, without caps; N, C: chain ends. Non-standard residues stand in square brackets, D forms with d. Residues, ends and D or L forms follow the SMILES beside them. hArg = N=C(N)NCCCC[C@H](N)C(=O)O; Mpa = O=C(O)CCS

Key:
[1] = target: T1, purified αIIbβ3 (Homo sapiens, UniProt P05106+P08514); assay: Fibrinogen binding to purified αIIbβ3; conditions: for effect of activating mAb AP5 on fibrinogen binding to purified αIIbβ3 in the presence of the substance: AP5 60 μg/ml
T1 construct: purchased Enzyme Research Laboratories, South Bend, Ind
T1 sequence (P08514 32-887 limits assumed): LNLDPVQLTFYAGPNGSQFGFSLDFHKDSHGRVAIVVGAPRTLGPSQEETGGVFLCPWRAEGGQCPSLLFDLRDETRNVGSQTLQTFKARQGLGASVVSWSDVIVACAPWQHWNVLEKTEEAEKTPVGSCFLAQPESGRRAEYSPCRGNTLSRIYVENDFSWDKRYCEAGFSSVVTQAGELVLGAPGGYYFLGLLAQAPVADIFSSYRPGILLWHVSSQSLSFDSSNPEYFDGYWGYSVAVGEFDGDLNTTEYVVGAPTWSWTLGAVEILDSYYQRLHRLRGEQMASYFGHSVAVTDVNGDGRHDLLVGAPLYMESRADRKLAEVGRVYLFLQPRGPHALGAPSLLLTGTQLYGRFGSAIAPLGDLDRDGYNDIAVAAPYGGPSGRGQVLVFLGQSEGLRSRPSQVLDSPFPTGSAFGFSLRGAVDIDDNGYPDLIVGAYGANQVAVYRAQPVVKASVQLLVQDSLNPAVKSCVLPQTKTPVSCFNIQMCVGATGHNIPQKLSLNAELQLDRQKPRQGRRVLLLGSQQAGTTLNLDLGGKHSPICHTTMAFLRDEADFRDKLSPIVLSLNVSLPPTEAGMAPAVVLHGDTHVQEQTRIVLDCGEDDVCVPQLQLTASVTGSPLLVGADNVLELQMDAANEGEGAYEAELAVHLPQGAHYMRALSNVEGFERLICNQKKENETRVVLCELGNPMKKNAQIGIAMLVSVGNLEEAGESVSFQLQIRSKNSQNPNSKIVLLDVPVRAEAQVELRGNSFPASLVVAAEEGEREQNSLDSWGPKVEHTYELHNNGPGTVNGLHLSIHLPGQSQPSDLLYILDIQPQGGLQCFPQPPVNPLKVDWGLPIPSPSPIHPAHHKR
T1 sequence (P08514 891-1039 partner limits assumed): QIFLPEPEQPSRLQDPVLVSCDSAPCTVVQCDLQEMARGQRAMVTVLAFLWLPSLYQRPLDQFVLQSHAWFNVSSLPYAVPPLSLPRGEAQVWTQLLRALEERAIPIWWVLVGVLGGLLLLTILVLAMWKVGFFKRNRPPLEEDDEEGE
T1 sequence (P05106 27-788): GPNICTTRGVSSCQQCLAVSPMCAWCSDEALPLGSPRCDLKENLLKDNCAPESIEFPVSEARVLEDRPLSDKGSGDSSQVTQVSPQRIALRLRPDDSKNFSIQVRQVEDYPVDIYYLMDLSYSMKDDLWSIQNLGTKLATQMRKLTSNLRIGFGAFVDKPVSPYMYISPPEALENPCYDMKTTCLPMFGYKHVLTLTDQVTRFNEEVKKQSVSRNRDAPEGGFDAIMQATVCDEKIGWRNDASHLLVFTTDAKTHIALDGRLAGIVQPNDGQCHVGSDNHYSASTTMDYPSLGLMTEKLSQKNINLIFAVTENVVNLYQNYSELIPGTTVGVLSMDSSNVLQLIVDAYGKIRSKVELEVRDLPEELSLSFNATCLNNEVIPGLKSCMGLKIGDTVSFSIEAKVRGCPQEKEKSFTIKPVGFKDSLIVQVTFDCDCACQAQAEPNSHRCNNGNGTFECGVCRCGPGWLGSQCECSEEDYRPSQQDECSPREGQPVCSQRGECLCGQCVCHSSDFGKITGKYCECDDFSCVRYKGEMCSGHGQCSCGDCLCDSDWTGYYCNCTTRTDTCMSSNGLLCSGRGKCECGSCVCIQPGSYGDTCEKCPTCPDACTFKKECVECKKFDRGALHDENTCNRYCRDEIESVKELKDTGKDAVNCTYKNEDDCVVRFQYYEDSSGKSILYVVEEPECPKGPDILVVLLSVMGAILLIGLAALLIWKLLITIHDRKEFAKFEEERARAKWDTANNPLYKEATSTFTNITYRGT
Experimental: (§1) Fibrinogen Binding to Purified αIIbβ3. The anti-β3 mAb 7H2 (10 μg/ml) is adsorbed to polystyrene microtiter plate wells overnight at 4° C., and wells are then blocked with 3.5% BSA for 1 h at 22° C. Purified αIIbβ3 (Enzyme Research Laboratories, South Bend, Ind.) is diluted in buffer A (50 mM Tris/HCl, 100 mM NaCl, 1 mM CaCl2, 1 mM MgCl2, 1% BSA, 0.0035% Triton X-100) to 10 μg/ml, and is allowed to adhere to wells coated with mAb 7H2 for 2 h at 37° C. Wells are then washed 3 times with buffer A. Fibrinogen, prepared in buffer A (20 μg/ml) in the presence or absence of mAb AP5 (60 μg/ml), is incubated in plate wells for 2 h at 37° C. with or without the Compounds or control solutions. Wells are washed 3 times with buffer A and then incubated with a horseradish peroxidase-conjugated polyclonal anti-fibrinogen antibody (1:1,000 in buffer A; DAKO, Glostrup, Denmark) for 1 h at 22° C. Wells are washed 3 times, 200 μl of a peroxidase substrate [3,3′,5,5′-tetramethylbenzidine (TMB), Sigma-Aldrich] is added, the reaction is terminated after 30 min by acidification with 50 μl 0.5 M H2SO4, and absorbance is determined at 450 nm. For priming experiments the procedure is the same except: 1) αIIbβ3 is allowed to adhere in the presence of either eptifibatide (10 μM), RGDS (10 μM; Rockefeller University Proteomics Resource Center), the Compounds (100 μM), or DMSO (1%); 2) wells are washed 10 times after αIIbβ3 adhesion; and 3) absorbance is determined at 655 nm after 10 min.

[2] = system: αVβ3-expressing CS1 cells; assay: CS1 cell adhesion to vitronectin; format: cell-based; conditions: mAbs 20 μg/ml, compound 100 μM; Mg2+
Experimental: (§2) Platelet and Cell Adhesion. Platelets are prepared from ACD-anticoagulated blood as previously described. Cells, either CS1 (αVβ3-expressing) or HEK293 (αIIbβ3-expressing) are separated from culture media by centrifugation at 200 g, 4 min. Cells are resuspended in HBMT containing 1 mM MgCl2 (CS1 cells) and/or 2 mM CaCl2 (HEK293 cells). Polystyrene 96-well microtiter plates (Nunc) are coated with either fibrinogen (50 μg/ml), vitronectin (5 μg/ml), or collagen (33 μg/ml, rat tail type 1, Becton Dickson) for 1 h, and blocked with HBMT for at least 1 h. Platelets and cells are treated with compounds or control solutions for 15 min at 37° C. before they are added to the microtiter wells. After adhering for 1 h at either 22° C. (platelets) or 37° C. (cells), non-adherent platelets or cells are removed by washing 3 times with HBMT containing the same ion composition as the buffer used for adhesion. Adherent platelets or cells are quantified by their endogenous acid phosphatase activity on p-nitrophenyl phosphate (pNPP) (1 mg/ml in 0.1 M sodium citrate, 0.1% Triton X-100, pH 5.4). In other experiments, 8-chambered glass coverslips (Nunc) are coated with collagen (33 μg/ml) for 1 h at 22° C. Washed platelets are allowed to adhere for 1 h at 22° C. and the coverslips are stained with the Alexa-488-conjugated β3-specific mAb 7H2. […]

[3] = system: platelets; assay: Fluorescent fibrinogen binding to platelets; format: cell-based; conditions: Homo sapiens, Platelet; AP5 60 μg/ml; read-out: IC50, fibrinogen binding to platelets induced by activating LIBS mAb AP5
Experimental: (§3) Fluorescent Fibrinogen Binding. Washed platelets at 250,000/μl or αIIbβ3-expressing HEK293 cells at 10×10^6/ml in HBMT with 2 mM Ca^2+/1 mM Mg^2+ are incubated with compounds or controls and 200 μg/ml fluorescent fibrinogen (Invitrogen) with or without 60 μg/ml of the activating mAb AP5 for 30 min at 22° C. in the dark. Unbound fibrinogen is removed by centrifugation at 1800 rpm for 3 min and the platelets are resuspended in HBMT before FACS analysis.

[4] = target: T1, purified αIIbβ3; assay: Priming of fibrinogen binding to purified αIIbβ3; conditions: eptifibatide 10 μM, RGDS 10 μM, Compounds 100 μM
Experimental: as §1

[5] = system: platelets in citrated PRP; assay: Platelet aggregation in 96-well plates (secondary screen); format: cell-based, human; conditions: induced by 5 μM ADP; 16.6 μM compound
Experimental: Platelet Preparation from Peripheral Blood. After informed consent is obtained from healthy human donors who have not taken any medication known to inhibit platelet function for at least 7 days, peripheral venous blood is collected via a 19-gauge butterfly needle into tubes containing either a 10% volume of sodium citrate (3.8%), or a 15% volume of Acid-Citrate-Dextrose (ACD-A, 74.8 mM sodium citrate, 38 mM citric acid, 124 mM dextrose). Platelet-rich plasma (PRP) is prepared by centrifugation at 650 g for 4 minutes at 22° C. and is gently removed with a plastic pipette. Platelet-poor plasma (PPP) is prepared by further centrifugation of the remaining blood at 3000 g for 10 minutes at 22° C. Washed platelets (WP) are prepared by treating ACD-anticoagulated PRP with 1 μM PGE1, adding 0.10 vol ACD, and centrifuge at 1200 g for 8 min at 22° C. […] Platelet counts are determined with the automated particle counter (ADVIA 120 hematological analyzer Bayer).
Platelet Aggregation in 96-well Plates. […] A 66.6 μl sample of citrated PRP from volunteer blood donors is added to compound-containing wells, and plates are allowed to equilibrate to 37° C. in the plate reader (SpectraMax) for 10 minutes. […] Absorbance is measured at 563 nm every 10 seconds with shaking for 3 s between reads for 8 minutes. Percent aggregation is calculated as (AbsPRP−Abssample)/(AbsPRP−AbsPPP).

[6] = target: T2, αIIbβ3 (Homo sapiens, UniProt P05106+P08514); assay: LIBS-specific mAb binding to resting platelets (flow cytometry); format: cell-based; conditions: compound 100 μM
T2 construct: endogenous in cells; host or cells: washed resting platelets from platelet-rich plasma
T2 sequence (P08514 32-887 limits assumed): as the sequence (P08514 32-887 limits assumed) above
T2 sequence (P08514 891-1039 partner limits assumed): as the sequence (P08514 891-1039 partner limits assumed) above
T2 sequence (P05106 27-788): as the sequence (P05106 27-788) above
Experimental: mAb Binding. PRP anticoagulated with ACD is centrifuged at 1200 g for 8 min and is resuspended in HBMT containing 2 mM Ca^2+, 1 mmMg^2+. Platelet count is adjusted to 250,000/μl. Platelets are incubated with the Compounds (100 μM), tirofiban (100 μM), EDTA (10 mM), or 10E5 (10 μg/ml) for 15 min, at 37° C. Samples are incubated with Fluorescently-labeled monoclonal antibodies (PMI-1, LIBS-1, AP5, 7H2, 7E3, or 10E5; Alexa-488-conjugated, Invitrogen) at 20 μl, 5 μg/ml final concentration for 30 min at room temperature in the dark before diluting 1:10 for analysis on a FACSCalibur flow cytometer (Becton Dickson). Antibody binding is reported as the geometric mean fluorescence intensity; nonspecific binding is determined by adding a 50-fold excess of unlabeled antibody before adding labeled antibody.

[7] = system: platelets; assay: Platelet aggregation in aggregometer; format: cell-based, human; conditions: for IC50: Homo sapiens, Platelet
Experimental: Platelet Preparation from Peripheral Blood. After informed consent is obtained from healthy human donors who have not taken any medication known to inhibit platelet function for at least 7 days, peripheral venous blood is collected via a 19-gauge butterfly needle into tubes containing either a 10% volume of sodium citrate (3.8%), or a 15% volume of Acid-Citrate-Dextrose (ACD-A, 74.8 mM sodium citrate, 38 mM citric acid, 124 mM dextrose). Platelet-rich plasma (PRP) is prepared by centrifugation at 650 g for 4 minutes at 22° C. and is gently removed with a plastic pipette. Platelet-poor plasma (PPP) is prepared by further centrifugation of the remaining blood at 3000 g for 10 minutes at 22° C. Washed platelets (WP) are prepared by treating ACD-anticoagulated PRP with 1 μM PGE1, adding 0.10 vol ACD, and centrifuge at 1200 g for 8 min at 22° C. The platelet pellet is resuspended in HBMT. Platelet counts are determined with the automated particle counter (ADVIA 120 hematological analyzer Bayer).
Platelet Aggregation in Aggregometer. Citrated PRP is incubated with compounds or controls for 15 min 37° C. in 300-500 μl vols in glass aggregometer tubes. Agonists are added after 30 s equilibration in the aggregometer (Kowa) and light transmittance is measured for 8 min. Agonists include ADP, collagen (native type 1 collagen fibrils), restocetin, arachidonic acid, and thrombin receptor activating peptide [TRAP (SFLLRN)].

[8] = target: T3, HEK293 cells expressing αIIbβ3 (Homo sapiens, UniProt P05106+P08514); assay: HEK293 cell adhesion to fibrinogen; format: cell-based; conditions: compound 100 μM, fibrinogen 50 μg/ml, 2 mM Ca2+/1 mM Mg2+, read-out: inhibition of HEK293 cell adhesion to immobilized fibrinogen
T3 construct: expressed in transfected cells; host or cells: HEK293
T3 sequence (P08514 32-887 limits assumed): as the sequence (P08514 32-887 limits assumed) above
T3 sequence (P08514 891-1039 partner limits assumed): as the sequence (P08514 891-1039 partner limits assumed) above
T3 sequence (P05106 27-788): as the sequence (P05106 27-788) above
Experimental: as §2

[9] = target: T4, αIIbβ3-expressing HEK293 cells (Homo sapiens, UniProt P05106+P08514); assay: Fluorescent fibrinogen binding to HEK293 cells; format: cell-based; conditions: AP5 60 μg/ml; n=3; read-out: IC50, AP5-induced fibrinogen binding to HEK293 cells
T4 construct: expressed in transfected cells; host or cells: HEK293
T4 sequence (P08514 32-887 limits assumed): as the sequence (P08514 32-887 limits assumed) above
T4 sequence (P08514 891-1039 partner limits assumed): as the sequence (P08514 891-1039 partner limits assumed) above
T4 sequence (P05106 27-788): as the sequence (P05106 27-788) above
Experimental: as §3

[10] = system: platelets in citrated whole blood; assay: Platelet adhesion under shear stress (cone and plate); format: cell-based, human; conditions: preferred Compound 50 μM, tirofiban 10 μM; 1800 s^−1; n=3
Experimental: Platelet Adhesion Under Shear Stress. A cone and plate system (Diamed, Cressier, Switzerland) is used to assess the effect of the Compounds on platelet deposition under shear stress. 0.25 ml of citrated whole blood is incubated with nothing, DMSO (0.5%), the Compounds (50 μM), or tirofiban (10 μM) for 15 min at 22° C. and placed in polystyrene wells (16 mm diameter, Nunc). A constant uniform shear force of 1800 s^−1 was applied across the well using a teflon cone for 2 min at 22° C. Wells are washed with buffer, fixed with 1% paraformaldehyde, stained with Wright's Stain (Sigma-Aldrich), and analyzed for platelet adhesion using a 20× objective in an inverted microscope (IX51, Olympus, Center Valley, Pa.). Platelet adhesion is assessed by measuring the area occupied by platelets in each of four uniformly selected viewing areas in duplicate wells using image analysis software (SlideBook, Intelligent Imaging Innovations, Denver, Colo.).

Molecule: CCc1nn2c(=O)cc(N3CCNCC3)nc2s1 [Preferred Compound, 2-ethyl-7-(piperazin-1-yl)-5H-[1,3,4]thiadiazolo-[3,2-a]pyrimidin-5-one]
effect of activating mAb AP5 on fibrinogen binding to purified αIIbβ3 in the presence of the substance [1]: does not increase
fibrinogen binding to purified αIIbβ3 in the presence of the substance ([1]; microtiter plates): blocked
IC50 ([1]; microtiter plates, n=3): 1.6 ± 0.4 µM
CS1 cell adhesion to immobilized vitronectin [2]: adhere
IC50 [3]: 29 ± 2 µM
fibrinogen binding after transient exposure of αIIbβ3 (priming), compared to untreated αIIbβ3 [4]: does not increase
reduction of the initial slope of aggregation [5]: 84%
binding of β3 LIBS-specific mAb AP5 compared with untreated platelets [6]: do not differ significantly
binding of β3 LIBS-specific mAb LIBS-1 compared with untreated platelets [6]: do not differ significantly
mAb Binding (% of tirofiban), AP5 (β3) ([6]; resting washed platelets): 26 ± 5.9 % of tirofiban
mAb Binding (% of tirofiban), LIBS-1 (β3) ([6]; resting washed platelets): 5.7 ± 6.3 % of tirofiban
mAb Binding (% of tirofiban), PMI-1 (αIIb) ([6]; resting washed platelets): 44 ± 8.7 % of tirofiban
mAb Binding (% of tirofiban), PMI-1 (αIIb) ([6]; resting washed platelets, listed as 2-ethyl-7-(piperazin-1-yl)-5H-[1,3,4]thiadiazolo-[3,2-a]pyrimidin-5-one): 44 % of tirofiban
IC50 ([7]; induced by 5 μM ADP, read-out: IC50, aggregation of platelets in citrated PRP): 13 ± 5 µM
IC50 ([7]; induced by 5 μM TRAP, n=3, read-out: IC50, aggregation of washed platelets): 3.4 ± 0.4 µM
IC50 ([7]; induced by 5 μM TRAP, read-out: IC50, aggregation of platelets in citrated PRP): 29 ± 6 µM
IC50 ([7]; induced by 1 mM arachidonic acid, read-out: IC50, aggregation of platelets in citrated PRP): 8.5 ± 5.7 µM
platelet aggregation in PRP induced by collagen ([7]; compound 100 μM, collagen 2 μg/ml): completely inhibits
later phase of ristocetin-induced aggregation of PRP ([7]; ristocetin 1.8 mg/ml, data not shown): does inhibit
initial slope (initial wave) of ristocetin-induced agglutination/aggregation of PRP ([7]; ristocetin 1.8 mg/ml, mAb 6D1 20 μg/ml): does not inhibit
inhibition at 100 µM [8]: 53 ± 4%
IC50 [9]: 21 ± 0.3 µM
inhibition of platelet deposition under shear, area occupied by platelets vs DMSO [10]: 87±10%

fibrinogen binding after transient exposure of αIIbβ3 (priming), compared to untreated αIIbβ3 [4]: 150±31%
Molecule: N=C(N)NCCCC[C@@H]1NC(=O)CCSSC[C@@H](C(N)=O)NC(=O)[C@@H]2CCCN2C(=O)[C@H](Cc2c[nH]c3ccccc23)NC(=O)[C@H](CC(=O)O)NC(=O)CNC1=O [eptifibatide] ([Mpa][hArg]GDWPC-NH2; disulfide 1-7)

effect of activating mAb AP5 on fibrinogen binding to purified αIIbβ3 in the presence of the substance [1]: does not increase
fibrinogen binding to purified αIIbβ3 in the presence of the substance ([1]; microtiter plates): blocked
Molecule: CCCCS(=O)(=O)N[C@@H](Cc1ccc(OCCCCC2CCNCC2)cc1)C(=O)O [tirofiban, reference compound]
inhibition of platelet deposition under shear, area occupied by platelets vs DMSO [10]: 99±1%

fibrinogen binding after transient exposure of αIIbβ3 (priming), compared to untreated αIIbβ3 [4]: 130±7%
Molecule: RGDS
